According to patent US11952611B2, “Methods and systems for detection of antibiotic resistance” (Laboratory Corporation of America Holdings, priority 2017, dated 2024):

How the values were obtained:
Assay type in all cases: cell-based, Staphylococcus aureus
[1] = test system: BAA-1720 - MRSA in co-culture with 12600 - MSSA; test: Table 6, MRSA in co-culture with MSSA
Description: Bacterial strains were serially diluted and transferred to a 96-well plate at 135 μL per well. 15 μL of cefoxitin was added to the wells to reach a final concentration of 1.8 μg/mL. The plate was then sealed and incubated at 37° C. for 2 hours or 3 hours. 10 μL of recombinant phage (1.6×10^8 pfu/mL) was added to each well. The plate was then re-sealed and incubated at 37° C. for an additional 1 or 2 hours. A master mix was made containing 15 μL 5× lysis buffer, 50 μL luciferase assay buffer, and 1 μL luciferase substrate per well. 65 μL of master mix was added to each well. Luminescence from the reactions was read on a GLOMAX® Navigator and relative luminal units (RLU) for each reaction were plotted and analyzed. RLU values three times greater than an established background RLU level for LB (>750 RLU) were considered positive. The results, shown in Table 6, indicate that samples with MRSA (38 CFU) can be distinguished from samples containing MSSA (up to 5088 CFU) using a 3-hour antibiotic/1-hour phage incubation protocol. Positive results are in bold. In Table 6, CFU values (318 CFU and 156 CFU) were experimentally validated by direct plating.

MRSA = test: Recombinant phage luciferase assay, oxacillin vs cefoxitin (Table 1), MRSA strains
Description: Bacterial strains were serially diluted to approximately 1×10^3 CFU/mL and transferred to a 96-well plate at 135 μL per well. 15 μL of oxacillin or cefoxitin were added to the wells to reach a final concentration of 1.0 μg/mL or 2.0 μg/mL of oxicillin or 2.0 μg/mL, 4.0 μg/mL, 8.0 μg/mL, or 10.0 μg/mL of cefoxitin. The plate was then sealed and incubated at 37° C. for 2 hours. 10 μL of recombinant phage (1.6×10^8 pfu/mL) was added to each well. The plate was then re-sealed and incubated at 37° C. for 2 hours. A master mix was made containing 15 μL 5× lysis buffer, 50 μL luciferase assay buffer, and 1 μL luciferase substrate per well. 65 μL of master mix was added to each well. Luminescence from the reactions was read on a GLOMAX® Navigator and relative luminal units (RLU) for each reaction were analyzed. RLU values three times greater than an established background RLU level for LB (>750 RLU) were considered positive. The results, shown in Table 1, indicate that the recombinant phage are capable of detecting the tested bacterial strains.

MSSA = test: Optimization of cefoxitin concentration (Table 2), MSSA strains
Description: Bacterial strains were serially diluted to approximately 1×10^3 CFU/mL and transferred to a 96-well plate at 135 μL per well. 15 μL of cefoxitin was added to the wells to reach a final concentration of 1.4 μg/mL, 1.6 μg/mL, 1.8 μg/mL or 2.0 μg/mL. The plate was then sealed and incubated at 37° C. for 2 hours. 10 μL of recombinant phage (1.6×10^8 pfu/mL) was added to each well. The plate was then re-sealed and incubated at 37° C. for an additional 2 hours. A master mix was made containing 15 μL 5× lysis buffer, 50 μL luciferase assay buffer, and 1 μL luciferase substrate per well. 65 μL of master mix was added to each well. Luminescence from the reactions were read on a GLOMAX® Navigator and relative luminal units (RLU) for each reaction were plotted and analyzed. RLU values three times greater than an established background RLU level for LB (>750 RLU) were considered positive. The results, shown in Table 2, indicate that the recombinant phage are capable of detecting these bacterial strains. […] Positive results are in bold.

[2] = MSSA detected CFU 1272, MRSA 38
[3] = MSSA detected CFU 2544, MRSA 38
[4] = MSSA detected CFU 5088, MRSA 38
[5] = MSSA detected CFU 10176, MRSA 38
[6] = strain AR0463 MRSA, detected CFU 419
[7] = strain AR0465 MRSA, detected CFU 111
[8] = strain AR0472 MRSA, detected CFU 190
[9] = strain AR0476 MRSA, detected CFU 194
[10] = strain AR0481 MRSA, detected CFU 43
[11] = strain BAA-1720 MRSA, detected CFU 201
[12] = strain 12600 MSSA, detected CFU 401
[13] = strain AR0484 MSSA, detected CFU 107
[14] = strain AR0485 MSSA, detected CFU 248
[15] = strain AR0486 MSSA, detected CFU 163
[16] = strain AR0487 MSSA, detected CFU 198
[17] = strain AR0488 MSSA, detected CFU 360
[18] = strain AR0489 MSSA, detected CFU 186
[19] = strain AR0490 MSSA, detected CFU 109
[20] = strain AR0491 MSSA, detected CFU 239
[21] = strain AR0492 MSSA, detected CFU 130
[22] = strain BAA-1721 MSSA, detected CFU 166

CO[C@@]1(NC(=O)Cc2cccs2)C(=O)N2C(C(=O)O)=C(COC(N)=O)CS[C@@H]21 [Cefoxitin, cefoxitin]
2 HR AB + 2 HR Phage 1.8 ug/mL ([1]; MSSA detected CFU 156, MRSA 38): 5084 RLU | 3 HR AB + 1 HR Phage 1.8 ug/mL ([1]; MSSA detected CFU 156, MRSA 38): 3976 RLU | 2 HR AB + 2 HR Phage 1.8 ug/mL ([1]; MSSA detected CFU 318, MRSA 38): 7143 RLU | 3 HR AB + 1 HR Phage 1.8 ug/mL ([1]; MSSA detected CFU 318, MRSA 38): 4567 RLU | 2 HR AB + 2 HR Phage 1.8 ug/mL ([1]; MSSA detected CFU 636, MRSA 38): 7217 RLU | 3 HR AB + 1 HR Phage 1.8 ug/mL ([1]; MSSA detected CFU 636, MRSA 38): 3946 RLU | 2 HR AB + 2 HR Phage 1.8 ug/mL [1, 2]: 6263 RLU | 3 HR AB + 1 HR Phage 1.8 ug/mL [1, 2]: 4930 RLU | 2 HR AB + 2 HR Phage 1.8 ug/mL [1, 3]: 10730 RLU | 3 HR AB + 1 HR Phage 1.8 ug/mL [1, 3]: 3749 RLU | 2 HR AB + 2 HR Phage 1.8 ug/mL [1, 4]: 11400 RLU | 3 HR AB + 1 HR Phage 1.8 ug/mL [1, 4]: 3548 RLU | 2 HR AB + 2 HR Phage 1.8 ug/mL [1, 5]: 13260 RLU | 3 HR AB + 1 HR Phage 1.8 ug/mL [1, 5]: 5347 RLU | Cefoxitin (RLU) 2 ug/mL (MRSA; [6]): 1125 RLU | Cefoxitin (RLU) 4 ug/mL (MRSA; [6]): 349 RLU | Cefoxitin (RLU) 8 ug/mL (MRSA; [6]): 287 RLU | Cefoxitin (RLU) 10 ug/mL (MRSA; [6]): 246 RLU | Cefoxitin (RLU) 2 ug/mL (MRSA; [7]): 7815 RLU | Cefoxitin (RLU) 4 ug/mL (MRSA; [7]): 5254 RLU | Cefoxitin (RLU) 8 ug/mL (MRSA; [7]): 4619 RLU | Cefoxitin (RLU) 10 ug/mL (MRSA; [7]): 2869 RLU | Cefoxitin (RLU) 2 ug/mL (MRSA; [8]): 3538 RLU | Cefoxitin (RLU) 4 ug/mL (MRSA; [8]): 229 RLU | Cefoxitin (RLU) 8 ug/mL (MRSA; [8]): 239 RLU | Cefoxitin (RLU) 10 ug/mL (MRSA; [8]): 220 RLU | Cefoxitin (RLU) 2 ug/mL (MRSA; [9]): 1202 RLU | Cefoxitin (RLU) 4 ug/mL (MRSA; [9]): 213 RLU | Cefoxitin (RLU) 8 ug/mL (MRSA; [9]): 204 RLU | Cefoxitin (RLU) 10 ug/mL (MRSA; [9]): 248 RLU | Cefoxitin (RLU) 2 ug/mL (MRSA; [10]): 3499 RLU | Cefoxitin (RLU) 4 ug/mL (MRSA; [10]): 983 RLU | Cefoxitin (RLU) 8 ug/mL (MRSA; [10]): 222 RLU | Cefoxitin (RLU) 10 ug/mL (MRSA; [10]): 250 RLU | Cefoxitin (RLU) 2 ug/mL (MRSA; [11]): 14910 RLU | Cefoxitin (RLU) 4 ug/mL (MRSA; [11]): 11250 RLU | Cefoxitin (RLU) 8 ug/mL (MRSA; [11]): 7123 RLU | Cefoxitin (RLU) 10 ug/mL (MRSA; [11]): 6431 RLU | effect on positive signal (MSSA; 1.8 ug/mL, most MSSA strains): selectively inhibit a positive signal | Cefoxitin Concentration 1.4 ug/mL (MSSA; [12]): 2489 RLU | Cefoxitin Concentration 1.6 ug/mL (MSSA; [12]): 1596 RLU | Cefoxitin Concentration 1.8 ug/mL (MSSA; [12]): 974 RLU | Cefoxitin Concentration 2 ug/mL (MSSA; [12]): 750 RLU | Cefoxitin Concentration 1.4 ug/mL (MSSA; [13]): 174 RLU | Cefoxitin Concentration 1.6 ug/mL (MSSA; [13]): 176 RLU | Cefoxitin Concentration 1.8 ug/mL (MSSA; [13]): 187 RLU | Cefoxitin Concentration 2 ug/mL (MSSA; [13]): 181 RLU | Cefoxitin Concentration 1.4 ug/mL (MSSA; [14]): 1328 RLU | Cefoxitin Concentration 1.6 ug/mL (MSSA; [14]): 812 RLU | Cefoxitin Concentration 1.8 ug/mL (MSSA; [14]): 655 RLU | Cefoxitin Concentration 2 ug/mL (MSSA; [14]): 404 RLU | Cefoxitin Concentration 1.4 ug/mL (MSSA; [15]): 4238 RLU | Cefoxitin Concentration 1.6 ug/mL (MSSA; [15]): 1743 RLU | Cefoxitin Concentration 1.8 ug/mL (MSSA; [15]): 1099 RLU | Cefoxitin Concentration 2 ug/mL (MSSA; [15]): 794 RLU | Cefoxitin Concentration 1.4 ug/mL (MSSA; [16]): 336 RLU | Cefoxitin Concentration 1.6 ug/mL (MSSA; [16]): 227 RLU | Cefoxitin Concentration 1.8 ug/mL (MSSA; [16]): 204 RLU | Cefoxitin Concentration 2 ug/mL (MSSA; [16]): 165 RLU | Cefoxitin Concentration 1.4 ug/mL (MSSA; [17]): 2274 RLU | Cefoxitin Concentration 1.6 ug/mL (MSSA; [17]): 1149 RLU | Cefoxitin Concentration 1.8 ug/mL (MSSA; [17]): 402 RLU | Cefoxitin Concentration 2 ug/mL (MSSA; [17]): 256 RLU | Cefoxitin Concentration 1.4 ug/mL (MSSA; [18]): 6208 RLU | Cefoxitin Concentration 1.6 ug/mL (MSSA; [18]): 3172 RLU | Cefoxitin Concentration 1.8 ug/mL (MSSA; [18]): 2029 RLU | Cefoxitin Concentration 2 ug/mL (MSSA; [18]): 870 RLU | Cefoxitin Concentration 1.4 ug/mL (MSSA; [19]): 1277 RLU | Cefoxitin Concentration 1.6 ug/mL (MSSA; [19]): 598 RLU | Cefoxitin Concentration 1.8 ug/mL (MSSA; [19]): 423 RLU | Cefoxitin Concentration 2 ug/mL (MSSA; [19]): 258 RLU | Cefoxitin Concentration 1.4 ug/mL (MSSA; [20]): 1438 RLU | Cefoxitin Concentration 1.6 ug/mL (MSSA; [20]): 676 RLU | Cefoxitin Concentration 1.8 ug/mL (MSSA; [20]): 518 RLU | Cefoxitin Concentration 2 ug/mL (MSSA; [20]): 338 RLU | Cefoxitin Concentration 1.4 ug/mL (MSSA; [21]): 1883 RLU | Cefoxitin Concentration 1.6 ug/mL (MSSA; [21]): 839 RLU | Cefoxitin Concentration 1.8 ug/mL (MSSA; [21]): 556 RLU | Cefoxitin Concentration 2 ug/mL (MSSA; [21]): 246 RLU | Cefoxitin Concentration 1.4 ug/mL (MSSA; [22]): 2753 RLU | Cefoxitin Concentration 1.6 ug/mL (MSSA; [22]): 1087 RLU | Cefoxitin Concentration 1.8 ug/mL (MSSA; [22]): 441 RLU | Cefoxitin Concentration 2 ug/mL (MSSA; [22]): 258 RLU
